Data as given in publication PMC12775124, “CUL4A-DDB1-DCAF10 is an N-recognin for N-terminally acetylated Src kinases” (Nature Communications, 2026).
Like-named read-outs stand apart in the source and are kept apart here.

Molecular target: T1, human NatA (Homo sapiens, UniProt P41227+Q9BXJ9)
T1 construct: Human NatA (hNatA) full-length (FL) was cloned; made in house; host or cells: Tnao38 insect cells (baculovirus, pFL vector)
T1 sequence (P41227 1-235): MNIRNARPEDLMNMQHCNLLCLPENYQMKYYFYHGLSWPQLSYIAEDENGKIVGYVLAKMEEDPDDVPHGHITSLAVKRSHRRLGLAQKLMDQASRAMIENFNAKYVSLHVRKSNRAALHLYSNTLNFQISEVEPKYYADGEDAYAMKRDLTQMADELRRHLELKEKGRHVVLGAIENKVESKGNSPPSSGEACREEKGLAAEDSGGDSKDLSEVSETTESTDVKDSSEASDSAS
T1 sequence (Q9BXJ9 1-866 partner): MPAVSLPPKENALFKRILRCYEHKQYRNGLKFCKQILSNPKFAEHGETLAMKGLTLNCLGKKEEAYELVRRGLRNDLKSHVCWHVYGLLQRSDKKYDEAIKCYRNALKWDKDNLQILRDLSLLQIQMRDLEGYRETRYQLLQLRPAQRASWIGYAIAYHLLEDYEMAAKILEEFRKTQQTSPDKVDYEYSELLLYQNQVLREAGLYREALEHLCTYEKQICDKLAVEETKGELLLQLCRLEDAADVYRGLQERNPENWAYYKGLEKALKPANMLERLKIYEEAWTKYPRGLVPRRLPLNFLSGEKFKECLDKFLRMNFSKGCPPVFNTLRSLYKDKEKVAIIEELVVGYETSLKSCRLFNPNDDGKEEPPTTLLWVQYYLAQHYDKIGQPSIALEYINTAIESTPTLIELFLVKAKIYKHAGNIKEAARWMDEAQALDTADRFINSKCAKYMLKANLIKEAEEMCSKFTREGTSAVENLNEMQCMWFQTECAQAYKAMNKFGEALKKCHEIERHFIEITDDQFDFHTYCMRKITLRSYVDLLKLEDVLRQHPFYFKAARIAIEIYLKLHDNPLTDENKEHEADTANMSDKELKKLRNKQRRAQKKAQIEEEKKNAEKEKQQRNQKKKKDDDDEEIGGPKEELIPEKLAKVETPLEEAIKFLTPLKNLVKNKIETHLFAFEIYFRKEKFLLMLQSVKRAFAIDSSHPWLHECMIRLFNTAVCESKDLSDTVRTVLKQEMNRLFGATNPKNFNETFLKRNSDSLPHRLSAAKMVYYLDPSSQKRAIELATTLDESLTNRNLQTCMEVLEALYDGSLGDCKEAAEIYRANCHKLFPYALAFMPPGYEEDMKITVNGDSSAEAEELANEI
Assay: In vitro Nt-acetylation assay (NatA, CPM fluorescence)
Type: biochemical
Protocol: Gly-starting proteins can be substrates of the Nt-acetyltransferase NatA[3],[21]. Having established direct DCAF10 binding to Ac-Gly N-termini, we next asked whether SFK N-termini are bona fide NatA substrates. We developed an in vitro Nt-acetylation assay comprising purified NatA, acetyl-CoA (Ac-CoA), and the peptide of interest (Fig. 3a, b)[33]. Acetyl-group transfer was assessed using CPM [7-(diethylamino)−3-(4′-maleimidophenyl)−4-methylcoumarin], which reacts specifically with free thiol groups to produce a highly fluorescent product (excitation: 390 nm; emission: 479 nm), allowing detection of CoA production after acetyl-group transfer to the peptide (Supplementary Fig. 4e). We optimized the conditions to determine Michaelis–Menten kinetics for NatA-mediated Nt-acetylation with a target peptide ([…]) previously used for NatA assays and co-crystallization (Supplementary Fig. 4f)[34]. […] Likely, this was due to a Km even higher than that of Src, and implying that the peptide concentrations in the assay might have been insufficient for the reaction to proceed with an appreciable rate. […] Negative controls (COX17 and Ac-Lyn) produced low signals. […] Given the direct association of NatA with SFK N-termini at the ribosomal exit tunnel, however, we surmise that Nt-acetylation of SFKs in cells may proceed despite these unfavorable kinetic parameters.
The assay was performed essentially as described previously. Briefly, peptide substrates (Supplementary Table 1) were incubated with purified human NatA and acetyl-CoA; acetylation was quantified by CPM fluorescence (CoA detection), and Michaelis–Menten parameters were derived from 8-point 1:1 dilution series within the linear range (n = 4 independent enzymatic assays). Full buffer compositions, reagent concentrations, plate format, instrument settings, controls, and fitting procedures are provided in the Supplementary Methods and Tables. […]
301 Cloning, expression, and purification of human NatA
302 Human NatA (hNatA) full-length (FL) was cloned in a pFL vector expressing both
303 genes, NAA15 with a 6× C-term histidine tag (NAA15-6xHIS) and NAA102. The
304 expression was carried out in insect cells (Tnao38) for 72 h infected 1:20 with
305 baculovirus. Washed cell pellets were lysed by sonication in a lysis buffer containing 200
306 mM NaCl, 50 mM HEPES pH 8.0, 20 mM Imidazole, and 2 mM TCEP. The protein
307 purification was performed as a three-step purification, starting with an affinity nickel
308 column, followed by an ion-exchange column with a gradient of 50–300 mM NaCl, and
309 finished with size exclusion chromatography (SEC) using an S200 10/300 column. The
310 main peaks were collected, and the protein was concentrated in the SEC buffer (150 mM
311 NaCl, 50 mM HEPES pH 8.0, 1 mM EDTA). The purified hNatA was flash-frozen in
312 liquid nitrogen and stored at -80°C.
314 In vitro Nt-acetylation assay
315 The method has been described in detail previously2. Briefly, different peptides
316 (Supplementary Table 1) and concentrations (an eight-step, 1:1 dilution series for
317 Michaelis-Menten curves) as indicated were incubated with 20 nM hNatA and 80 µM Ac-
318 CoA in reaction buffer (50 mM HEPES pH 8.0, 0.5 mM EDTA, 0.005% CHAPS) for 60
319 (Src) or 120 min (Lyn), at RT in a 384-well microplate (Corning 4514) (n = 4).
320 Afterwards, the enzymatic reaction was stopped by adding 1:1 DMSO with 10 µM (final
321 concentration 5 µM) of the thiol reactive CPM (7-Diethylamino-3-
322 (4'Maleimidylphenyl)4-Methylcoumarin). After 1 h at RT, the readout was performed
323 with a Tecan Spark® Multimode Microplate Reader (excitation 390 nm, emission 479
324 nm). Background values at 0 µM peptide were subtracted, and control reactions omitting
325 NatA or Ac-CoA were performed. Dilution series of CoA incubated with 5 µM CPM were
326 used to generate a linear equation (y = 10.99*x + 81.06) to calculate acetylation velocities
327 for NatA-mediated peptide acetylation. […]

[1] = starting peptide concentration 1 mM
[2] = 20 nM NatA, 80 µM Ac-CoA, pH 8.0, RT, 120 min, peptide up to 1 mM, CPM fluorescence, mean ± s.d., n = 4, read-out: Km
[3] = conclusion: poor NatA substrates, read-out: Km, summary statement
[4] = original assay, peptide up to 160 μM
[5] = rounded values in Peer Review File, read-out: Km, as given in rebuttal

| Sequence | Nt-acetylation by NatA (in words) [1] | Km [2] [µM] | Km [3] [µM] | Nt-acetylation by NatA (in words) [4] | Km [5] [µM] |
| --- | --- | --- | --- | --- | --- |
| GCIKSKGKDSKK [Ac-Lyn, Nt-peptide of Lyn (aa 1–10 + KKK-biotin), Nt-acetylated] | low signals |  |  |  |  |
| GCIKSKGKDSKK [Nt-free Lyn, Nt-peptide of Lyn (aa 1–10 + KKK-biotin), Nt-free] | detectable Nt-acetylation | 411 ± 94 | > 100 | did not show Nt-acetylation under these conditions | 411 |
| GSNKSKPKDAKK [Ac-Src, Nt-peptide of Src, Nt-acetylated] |  |  |  | no detectable acetylation |  |
| GCVQCKDKEAKK [Nt-free Fyn, Nt-peptide of Fyn, Nt-free] | detectable Nt-acetylation | 235 ± 46 | > 100 | did not show Nt-acetylation under these conditions | 235 |
